According to US8350032B2, “Integrated photoactive agents for real-time monitoring of hemostasis” (MediBeacon Development, LLC, priority 2007, dated 2013):

Test system: production of thrombin via activation of the extrinsic cascade (tissue factor pathway)
Assay: whole blood activity screen: inhibition of thrombin production when clotting is activated via the tissue factor pathway (extrinsic cascade)
Type: biochemical
Details: nine concentrations, in triplicate, FIG. 4
Protocol: The compound (MP3117) of Example 1 was tested for its ability to inhibit the production of thrombin via activation of the extrinsic cascade. In particular, an assay that included a whole blood activity screen was performed. In this regard, nine aqueous solutions containing varying concentrations of the compound of Example 1 were tested for their ability to inhibit thrombin production when clotting was activated via the tissue factor pathway (in triplicate). The data from the assay was also utilized to extract the IC50 for the compound. Incidentally, “IC50” refers to the amount of a compound necessary to inhibit 50% of the active enzyme to which it binds.

IC50: 12.4 ± 0.79 nM
SMILES: N=C(N)c1ccc(CNC(=O)c2nc(N)c(C(=O)NCc3ccc(C(=N)N)cc3)nc2N)cc1 [Example 1, 3,6-diamino-N2,N5-bis(4-carbamimidoylbenzyl)pyrazine-2,5-dicarboxamide]
